This note sets out measurements from ChEMBL document CHEMBL6153119, “Target Identification with Live-Cell Photoaffinity Labeling and Mechanism of Action Elucidation of ARN23765, a Highly Potent CFTR Corrector” (J Med Chem, 2025).

Calls of active or inactive are those of the source. The rule behind the calls is not given here.

Common to all, as to format: cell-based
Test [1] deals with Cystic fibrosis transmembrane conductance regulator (Homo sapiens), P13569 [F508del/R1070W]. In words: Corrector activity at CFTR F508del/R1070W mutant (unknown origin) transfected in HEK293 cells assessed as increase in protein maturation at 3 uM incubated for 24 hrs by Western blot analysis.
Sequence of Cystic fibrosis transmembrane conductance regulator (Homo sapiens), P13569 [F508del/R1070W] (P13569 as listed by the source): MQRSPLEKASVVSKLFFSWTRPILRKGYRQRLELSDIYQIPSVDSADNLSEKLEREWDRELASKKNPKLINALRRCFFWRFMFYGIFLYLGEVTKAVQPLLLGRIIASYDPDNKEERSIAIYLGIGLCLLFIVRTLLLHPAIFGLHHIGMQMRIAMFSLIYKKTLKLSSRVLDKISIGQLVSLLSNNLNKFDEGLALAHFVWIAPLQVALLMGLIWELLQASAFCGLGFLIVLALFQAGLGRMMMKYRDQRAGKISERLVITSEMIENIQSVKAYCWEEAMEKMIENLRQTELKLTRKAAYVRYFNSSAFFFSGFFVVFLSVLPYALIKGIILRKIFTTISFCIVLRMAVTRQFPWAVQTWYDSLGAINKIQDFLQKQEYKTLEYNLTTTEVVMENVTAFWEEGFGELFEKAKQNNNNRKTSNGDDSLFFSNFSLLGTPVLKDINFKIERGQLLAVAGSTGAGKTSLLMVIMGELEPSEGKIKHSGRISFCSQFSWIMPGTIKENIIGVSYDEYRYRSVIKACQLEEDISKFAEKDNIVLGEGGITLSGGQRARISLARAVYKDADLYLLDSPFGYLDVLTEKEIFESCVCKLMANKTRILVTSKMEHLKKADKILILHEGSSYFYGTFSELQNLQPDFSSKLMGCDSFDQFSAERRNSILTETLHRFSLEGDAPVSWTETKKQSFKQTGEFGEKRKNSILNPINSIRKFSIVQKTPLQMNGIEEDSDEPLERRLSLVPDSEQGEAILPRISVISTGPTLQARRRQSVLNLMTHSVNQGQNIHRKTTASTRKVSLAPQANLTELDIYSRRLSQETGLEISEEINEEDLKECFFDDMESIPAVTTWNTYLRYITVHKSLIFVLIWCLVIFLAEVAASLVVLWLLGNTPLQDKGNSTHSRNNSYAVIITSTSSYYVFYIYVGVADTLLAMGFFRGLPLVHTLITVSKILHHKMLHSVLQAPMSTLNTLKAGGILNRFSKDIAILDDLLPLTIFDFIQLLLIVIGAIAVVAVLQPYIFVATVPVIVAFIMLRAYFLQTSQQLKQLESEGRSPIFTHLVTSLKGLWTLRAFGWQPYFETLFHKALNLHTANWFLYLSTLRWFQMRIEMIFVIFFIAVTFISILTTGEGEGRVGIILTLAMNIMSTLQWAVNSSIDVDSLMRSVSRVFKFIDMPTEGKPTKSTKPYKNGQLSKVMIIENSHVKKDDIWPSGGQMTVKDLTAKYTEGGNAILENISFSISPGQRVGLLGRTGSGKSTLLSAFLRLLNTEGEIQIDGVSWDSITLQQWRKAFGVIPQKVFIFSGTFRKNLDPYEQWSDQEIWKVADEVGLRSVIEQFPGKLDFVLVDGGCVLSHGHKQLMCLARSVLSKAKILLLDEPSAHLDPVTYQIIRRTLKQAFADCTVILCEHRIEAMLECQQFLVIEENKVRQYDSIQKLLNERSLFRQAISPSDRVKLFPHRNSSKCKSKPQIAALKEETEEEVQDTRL
Test [2] shares this test system. Briefly: Corrector activity at CFTR F508del/R1070W mutant (unknown origin) transfected in HEK293 cells assessed as increase in […] at 3 uM incubated for 24 hrs by Western blot analysis.
Test [3] concerns Cystic fibrosis transmembrane conductance regulator (Homo sapiens), P13569 [F508del]. Briefly: Corrector activity at immature CFTR F508del mutant (unknown origin) expressed in human CFBE41o- cells assessed as restoration of CFTR level at 27 degreeC at 1 uM preincubated with ARN23765 followed by compound addition measured after 2 hrs by pull down assay.
Sequence of Cystic fibrosis transmembrane conductance regulator (Homo sapiens), P13569 [F508del] (P13569 as listed by the source): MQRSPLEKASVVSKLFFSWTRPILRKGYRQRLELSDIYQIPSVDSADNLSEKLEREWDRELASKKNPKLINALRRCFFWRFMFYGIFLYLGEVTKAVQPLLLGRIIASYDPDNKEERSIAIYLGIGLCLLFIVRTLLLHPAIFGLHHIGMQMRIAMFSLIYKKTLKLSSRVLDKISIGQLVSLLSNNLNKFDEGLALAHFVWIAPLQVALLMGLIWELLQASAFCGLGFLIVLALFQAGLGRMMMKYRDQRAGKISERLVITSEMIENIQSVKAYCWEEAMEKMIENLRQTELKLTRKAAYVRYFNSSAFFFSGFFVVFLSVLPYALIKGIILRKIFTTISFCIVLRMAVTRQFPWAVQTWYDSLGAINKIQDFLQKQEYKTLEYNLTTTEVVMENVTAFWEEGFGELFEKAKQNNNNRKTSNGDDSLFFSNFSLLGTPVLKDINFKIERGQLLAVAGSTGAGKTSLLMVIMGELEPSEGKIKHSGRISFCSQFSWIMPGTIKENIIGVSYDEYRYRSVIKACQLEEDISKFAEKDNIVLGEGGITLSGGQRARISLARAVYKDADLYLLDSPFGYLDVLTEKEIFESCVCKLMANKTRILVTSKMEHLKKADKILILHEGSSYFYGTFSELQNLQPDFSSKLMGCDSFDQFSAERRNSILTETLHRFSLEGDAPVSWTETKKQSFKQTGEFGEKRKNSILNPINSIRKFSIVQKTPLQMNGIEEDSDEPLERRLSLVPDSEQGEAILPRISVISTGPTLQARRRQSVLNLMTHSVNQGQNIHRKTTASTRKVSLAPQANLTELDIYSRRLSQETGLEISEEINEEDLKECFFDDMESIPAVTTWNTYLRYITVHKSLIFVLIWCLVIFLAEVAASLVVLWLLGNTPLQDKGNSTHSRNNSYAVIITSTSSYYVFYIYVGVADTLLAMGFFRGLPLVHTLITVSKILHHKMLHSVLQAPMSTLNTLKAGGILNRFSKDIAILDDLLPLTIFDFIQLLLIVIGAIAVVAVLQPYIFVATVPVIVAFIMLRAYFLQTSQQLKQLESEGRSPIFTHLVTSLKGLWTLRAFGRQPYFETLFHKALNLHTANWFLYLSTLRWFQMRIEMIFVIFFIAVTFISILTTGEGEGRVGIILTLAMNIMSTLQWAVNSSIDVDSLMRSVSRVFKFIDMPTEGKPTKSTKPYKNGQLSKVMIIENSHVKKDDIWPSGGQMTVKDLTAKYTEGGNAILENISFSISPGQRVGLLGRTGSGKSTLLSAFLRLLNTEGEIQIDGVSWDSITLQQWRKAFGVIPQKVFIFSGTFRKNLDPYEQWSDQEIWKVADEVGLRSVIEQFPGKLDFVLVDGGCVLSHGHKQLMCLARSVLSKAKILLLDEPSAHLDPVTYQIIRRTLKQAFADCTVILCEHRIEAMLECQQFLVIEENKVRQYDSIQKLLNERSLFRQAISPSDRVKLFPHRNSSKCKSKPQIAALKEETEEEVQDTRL
The test system is the same in test [4]. Briefly: Corrector activity at mature CFTR F508del mutant (unknown origin) expressed in human CFBE41o- cells assessed as restoration of CFTR level at 27 degreeC at 1 uM preincubated with ARN23765 followed by compound addition measured after 2 hrs by pull down assay.
The target in test [5] is Cystic fibrosis transmembrane conductance regulator (Homo sapiens) (UniProt P13569). In words: Corrector activity at CFTR in human CFBE41o- cells harboring CFTR-/- assessed as restoration of CFTR level at 1 uM preincubated with ARN23765 followed by compound addition measured after 2 hrs by pull down assay.
Sequence of Cystic fibrosis transmembrane conductance regulator (Homo sapiens) (P13569 whole entry, looked up, the tested form may be a part): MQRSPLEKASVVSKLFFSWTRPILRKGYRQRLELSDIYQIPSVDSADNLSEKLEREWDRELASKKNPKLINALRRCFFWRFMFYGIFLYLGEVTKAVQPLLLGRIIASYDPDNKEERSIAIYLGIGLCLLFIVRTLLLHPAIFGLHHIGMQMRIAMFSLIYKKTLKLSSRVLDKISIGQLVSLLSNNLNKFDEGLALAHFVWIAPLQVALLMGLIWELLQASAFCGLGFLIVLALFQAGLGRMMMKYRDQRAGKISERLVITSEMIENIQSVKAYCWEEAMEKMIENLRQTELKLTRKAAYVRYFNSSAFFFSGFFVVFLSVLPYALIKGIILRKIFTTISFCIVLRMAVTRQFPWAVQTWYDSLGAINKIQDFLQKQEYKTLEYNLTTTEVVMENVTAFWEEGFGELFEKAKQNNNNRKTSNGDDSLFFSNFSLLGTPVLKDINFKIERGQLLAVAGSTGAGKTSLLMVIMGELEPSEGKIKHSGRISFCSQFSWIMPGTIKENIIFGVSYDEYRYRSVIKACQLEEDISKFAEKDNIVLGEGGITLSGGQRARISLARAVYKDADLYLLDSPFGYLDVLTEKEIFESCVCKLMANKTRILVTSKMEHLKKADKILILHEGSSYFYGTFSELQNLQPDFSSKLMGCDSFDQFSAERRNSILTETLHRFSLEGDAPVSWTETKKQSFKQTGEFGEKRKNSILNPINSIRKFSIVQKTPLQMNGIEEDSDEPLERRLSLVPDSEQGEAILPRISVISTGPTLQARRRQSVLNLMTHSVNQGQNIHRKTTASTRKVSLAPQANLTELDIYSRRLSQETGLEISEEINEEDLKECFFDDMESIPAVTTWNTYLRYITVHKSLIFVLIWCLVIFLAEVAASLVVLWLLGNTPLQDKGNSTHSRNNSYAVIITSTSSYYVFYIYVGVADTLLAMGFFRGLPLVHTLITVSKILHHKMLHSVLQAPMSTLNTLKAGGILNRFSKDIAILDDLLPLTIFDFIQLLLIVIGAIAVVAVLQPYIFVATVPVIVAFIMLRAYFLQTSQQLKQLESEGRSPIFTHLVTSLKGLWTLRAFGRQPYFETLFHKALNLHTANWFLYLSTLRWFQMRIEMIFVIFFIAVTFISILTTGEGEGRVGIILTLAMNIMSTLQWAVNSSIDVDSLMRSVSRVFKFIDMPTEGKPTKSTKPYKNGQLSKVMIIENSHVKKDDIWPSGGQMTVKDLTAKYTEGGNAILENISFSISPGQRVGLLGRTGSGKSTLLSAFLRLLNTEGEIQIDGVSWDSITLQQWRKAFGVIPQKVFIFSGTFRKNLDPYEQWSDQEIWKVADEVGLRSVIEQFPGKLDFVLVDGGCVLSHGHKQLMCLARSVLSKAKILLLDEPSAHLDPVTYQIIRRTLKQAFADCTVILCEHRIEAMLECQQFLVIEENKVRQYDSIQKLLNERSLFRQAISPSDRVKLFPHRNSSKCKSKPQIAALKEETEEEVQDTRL
The subject of test [6] is Cystic fibrosis transmembrane conductance regulator (Homo sapiens), P13569 [F508del]. Briefly: Corrector activity at CFTR F508del mutant (unknown origin) expressed in human CFBE41o- cells assessed as restoration of CFTR level at 1 uM preincubated with ARN23765 followed by compound addition measured after 2 hrs by pull down assay.
Test [7] has as its target Cystic fibrosis transmembrane conductance regulator (Homo sapiens) (UniProt P13569). Briefly: Corrector activity at wild-type CFTR (unknown origin) expressed in human CFBE41o- cells assessed as restoration of CFTR level at 1 uM preincubated with ARN23765 followed by compound addition measured after 2 hrs by pull down assay.
Test [8] relates to Cystic fibrosis transmembrane conductance regulator (Homo sapiens), P13569 [F508del/N71I]. In words: Corrector activity at CFTR F508del/N71I mutant (unknown origin) transfected in HEK293 cells assessed as increase in protein maturation at 10 nM incubated for 24 hrs by Western blot analysis.
For test [9], the target named is Cystic fibrosis transmembrane conductance regulator (Homo sapiens) (UniProt P13569). In words: Corrector activity at CFTR (unknown origin) transfected in HEK293 cells harboring CFTR fragment containing del-R assessed as increase in expression of CFTR level at 10 nM incubated for 24 hrs by Western blot analysis.
Test [10] concerns Cystic fibrosis transmembrane conductance regulator (Homo sapiens), P13569 [F508del]. In words: Corrector activity at CFTR F508del mutant (unknown origin) expressed in human CFBE41o- cells assessed as restoration of CFTR level at 25 uM incubated for 30 mins by pull down assay.
Test [11] has as its system Cystic fibrosis transmembrane conductance regulator (Homo sapiens), P13569 [F508del/S364F]. Briefly: Corrector activity at CFTR F508del/S364F mutant (unknown origin) transfected in HEK293 cells assessed as increase in protein maturation at 10 nM incubated for 24 hrs by Western blot analysis.
The subject of test [12] is HEK293. In words: Corrector activity at CFTR F508del/A198Y mutant (unknown origin) transfected in HEK293 cells assessed as increase in protein maturation at 10 nM incubated for 24 hrs by Western blot analysis. Particulars: Homo sapiens.
The target in test [13] is Cystic fibrosis transmembrane conductance regulator (Homo sapiens) (UniProt P13569). In words: Corrector activity at CFTR (unknown origin) transfected in HEK293 cells harboring CFTR fragment containing MSD1-NBD1 assessed as increase in expression of CFTR level at 10 nM incubated for 24 hrs by Western blot analysis.
Test [14] has as its system Cystic fibrosis transmembrane conductance regulator (Homo sapiens), P13569 [F508del/W361A]. In words: Corrector activity at CFTR F508del/W361A mutant (unknown origin) transfected in HEK293 cells assessed as increase in protein maturation at 10 nM incubated for 24 hrs by Western blot analysis.
Test [15] concerns Cystic fibrosis transmembrane conductance regulator (Homo sapiens), P13569 [F508del/R1070W]. Briefly: Corrector activity at CFTR F508del/R1070W mutant (unknown origin) transfected in HEK293 cells assessed as increase in protein maturation at 10 nM incubated for 24 hrs by Western blot analysis.
Test [16] has as its system Cystic fibrosis transmembrane conductance regulator (Homo sapiens), P13569 [F508del/F81A]. In words: Corrector activity at CFTR F508del/F81A mutant (unknown origin) transfected in HEK293 cells assessed as increase in protein maturation at 10 nM incubated for 24 hrs by Western blot analysis.
Test [17] relates to Cystic fibrosis transmembrane conductance regulator (Homo sapiens), P13569 [R170G]. Briefly: Corrector activity at CFTR R170G mutant (unknown origin) transfected in HEK293 cells assessed as increase in protein maturation at 10 nM incubated for 24 hrs by Western blot analysis.
Test [18] has as its system Cystic fibrosis transmembrane conductance regulator (Homo sapiens), P13569 [F508del/R1070W]. Briefly: Corrector activity at CFTR F508del/R1070W mutant (unknown origin) transfected in HEK293 cells assessed as increase in […] at 10 nM incubated for 24 hrs by Western blot analysis.
For test [19], the system named is Cystic fibrosis transmembrane conductance regulator (Homo sapiens), P13569 [F508del/R74A]. Briefly: Corrector activity at CFTR F508del/R74A mutant (unknown origin) transfected in HEK293 cells assessed as increase in protein maturation at 10 nM incubated for 24 hrs by Western blot analysis.
Test [20] addresses Cystic fibrosis transmembrane conductance regulator (Homo sapiens) (UniProt P13569). Briefly: Corrector activity at CFTR (unknown origin) transfected in HEK293 cells harboring CFTR fragment containing MSD1 assessed as increase in half life of CFTR MSD1 at 10 nM incubated for 24 hrs by Western blot analysis.
Test [21] has the same target. Briefly: Corrector activity at CFTR (unknown origin) transfected in HEK293 cells harboring CFTR fragment containing MSD2 assessed as increase in expression of CFTR level at 10 nM incubated for 24 hrs by Western blot analysis.
Test [22] relates to Cystic fibrosis transmembrane conductance regulator (Homo sapiens), P13569 [R170G]. Briefly: Corrector activity at CFTR R170G mutant (unknown origin) transfected in HEK293 cells assessed as increase in […] at 10 nM incubated for 24 hrs by Western blot analysis.
Test [23] addresses Cystic fibrosis transmembrane conductance regulator (Homo sapiens) (UniProt P13569). In words: Corrector activity at CFTR (unknown origin) transfected in HEK293 cells harboring CFTR fragment containing MSD1 assessed as increase in expression of CFTR level at 10 nM incubated for 24 hrs by Western blot analysis.
The target is the same in test [24]. In words: Corrector activity at wild-type CFTR (unknown origin) expressed in human CFBE41o- cells assessed as restoration of CFTR level at 25 uM incubated for 30 mins by pull down assay.
The target is the same in test [25]. In words: Corrector activity at CFTR (unknown origin) transfected in HEK293 cells harboring CFTR fragment containing MSD1-NBD1-R assessed as increase in expression of CFTR level at 10 nM incubated for 24 hrs by Western blot analysis.
Test [26] deals with Cystic fibrosis transmembrane conductance regulator (Homo sapiens), P13569 [F508del/K68I]. Briefly: Corrector activity at CFTR F508del/K68I mutant (unknown origin) transfected in HEK293 cells assessed as increase in protein maturation at 10 nM incubated for 24 hrs by Western blot analysis.
For test [27], the target named is Cystic fibrosis transmembrane conductance regulator (Homo sapiens) (UniProt P13569). Briefly: Corrector activity at CFTR (unknown origin) transfected in HEK293 cells harboring CFTR fragment containing MSD2-NBD2 assessed as increase in expression of CFTR level at 10 nM incubated for 24 hrs by Western blot analysis.
The target is the same in test [28]. Briefly: Corrector activity at CFTR (unknown origin) transfected in HEK293 cells harboring CFTR fragment containing MSD2 assessed as effect on CFTR MSD2 stability at 10 nM incubated for 24 hrs by Western blot analysis.
Test [29] relates to Cystic fibrosis transmembrane conductance regulator (Homo sapiens), P13569 [F508del]. In words: Corrector activity at CFTR F508del mutant (unknown origin) expressed in human CFBE41o- cells co-expressing HS-YFP assessed as maximum restoration of channel function incubated for 24 hrs by florescence based analysis (reference value: 3.0).
Test [30] concerns the target Cystic fibrosis transmembrane conductance regulator (Homo sapiens) (UniProt P13569). Briefly: Corrector activity at wild-type CFTR (unknown origin) expressed in human CFBE41o- cells assessed as restoration of CFTR level at 2.5 uM with UV light irradiation followed by CuAAC implementation by pull down assay.

With `CC(C)(CO)c1cc2cc(NC(=O)C3(c4ccc5c(c4)OC(F)(F)O5)CC3)c(F)cc2n1C[C@@H](O)CO`, the outcome in test [1] and in test [2] was Active.
For `C[C@H]1NC(=O)N[C@H]1CCCCCC(=O)NCCOCCOCCOCCn1cc(-c2ccc(O[C@H]3CCCc4c(C(F)(F)F)nn(-c5cccc(C(=O)N(C)c6ccc(C7(C(F)(F)F)N=N7)cc6)c5)c43)cc2)nn1`, the outcome in [3] and in test [4] was Active. The outcome in test [5], in test [6] and in test [7] was inactive.
For `CN(C(=O)c1cccc(-n2nc(C(F)(F)F)c3c2[C@@H](Oc2ccc(C(=O)O)cc2)CCC3)c1)c1ccc2c(c1)OC(F)(F)O2`, the outcome in [8], in [9], in [13], in test [15], in test [17] and in test [18] was Active. In addition, the result in [20], in [22], in [23], in test [25] and in [26] was Active. Moreover, the outcome in test [10], in test [21], in [24], in test [27] and in test [28] was inactive. Moreover, the Activity result in [11] was “Not active; Slightly Reduced Protein Maturation”; in test [12] it was “Not active; Protein Maturation Markedly Reduced Or Abolished”; in [14] it was “Not active; Protein Maturation Markedly Reduced Or Abolished”; in test [16], “Not active; Protein Maturation Markedly Reduced Or Abolished”; in test [19], “Not active; Slightly Reduced Protein Maturation”.
Take `C[C@H]1NC(=O)N[C@H]1CCCCCC(=O)NCCOCCOCCOCCn1cc(CCC2(CCNC(=O)c3ccc(O[C@H]4CCCc5c(C(F)(F)F)nn(-c6cccc(C(=O)N(C)c7ccc8c(c7)OC(F)(F)O8)c6)c54)cc3)N=N2)nn1`: the Activity in test [29] turned out to be 2.8. Moreover, the outcome in [3] and in test [4] was Active. Further, the outcome in [5], in test [6] and in test [7] was inactive.
For `C#Cc1ccc(O[C@H]2CCCc3c(C(F)(F)F)nn(-c4cccc(C(=O)N(C)c5ccc(C6(C(F)(F)F)N=N6)cc5)c4)c32)cc1`, the result in test [30] was inactive.
